Test results: patent US20250032443A1, “TREATMENT OF MYOTONIC DISORDERS” (University of Rochester, priority 2021, published 2025)

Tests used:
[1] = system: Cav1.1^Δe29/ClC-1^−/− mice; experiment: Body weight measurements in Cav1.1^Δe29/ClC-1^−/− mice; type: in vivo, mouse
Description: Mice were provided food cups immediately after weaning, and food was changed daily. No other food source was given, but water was provided and changed weekly along with cages.
Body weight of the mice was measured every other day following weaning to the end of terminal experimentation. For statistical analysis, two-way ANOVA was performed on the average of each week's measurements. Percent body weight change at 10 weeks was determined with the first weight measurement taken post-weaning, and the body weight reached at 10 weeks.

[2] = system: Cav1.1^Δe29/ClC-1^−/− mice; experiment: Time of righting reflex in Cav1.1^Δe29/ClC-1^−/− mice; type: in vivo, mouse
Description: Mice were held in a supine position on a level surface and then released. Two persons began timing immediately after release, and timing was stopped once all four paws were down on the surface. This was repeated for a total of 10 timed righting responses with a minimum of five minutes in between each recording to avoid myotonic warm-up. Recordings less than a second were recorded as “1,” and righting was considered a failure if righting took more than 60 seconds. If failure was reached, no further recordings were measured for that mouse for that week. The two longest and two shortest recording for each mouse was removed, and the average of the middle 6 recordings were used for analysis. Two-way ANOVA on the week-to-week results and one-way ANOAV with multiple comparisons for the timepoint data (10-week and 20-week) were performed.

[3] = system: Cav1.1^Δe29/ClC-1^−/− mice; experiment: Whole body plethysmography in Cav1.1^Δe29/ClC-1^−/− mice; type: in vivo, mouse
Description: Whole body plethysmography (Buxco® Small Animal Whole Body Plethysmography, Data Science Internation) was used to measure respiratory function at 10 weeks (all groups) and 20 weeks (excluding untreated Cav1.1^Δe29/ClC-1^−/−). Mice were acclimated to the system for two days, with data being collected on day three. […] Average data from the 10-minute acquisition period for frequency (Breath/min) and tidal volume (mL) were analyzed for statistics by one-way ANOVA with multiple comparisons.

[4] = system: EDL muscle of Cav1.1^Δe29/ClC-1^−/− mice; experiment: In vitro muscle contraction of EDL isolated from long-term orally treated mice (no drug in bath); type: in vivo, mouse; settings: 20-weeks-of-age, amlodipine treatment
[5] = system: diaphragm strip of Cav1.1^Δe29/ClC-1^−/− mice; experiment: In vitro muscle contraction of diaphragm strips isolated from long-term orally treated mice (no drug in bath); type: in vivo, mouse
myotonic WT EDL = experiment: Myotonia, ex vivo EDL incubated with 9-AC; design: species or system mouse
myotonic Cav1.1^Δe29 EDL = experiment: Myotonia, ex vivo EDL incubated with 9-AC; design: species or system mouse
[6] = system: WT and Cav1.1^Δe29 EDLs (no 9AC); experiment: Myotonia protocol, ex vivo EDL without 9-AC; design: species or system mouse; settings: 10 mM amlodipine in the bath
[7] = system: Cav1.1^Δe29+9-AC EDL muscle; experiment: Transient weakness, ex vivo EDL made myotonic with 9-AC; design: initial force generation drop: dose or concentration left out as unconfirmed; settings: for transient weakness: 20-wk mice
[8] = system: non-myotonic and myotonic WT and Cav1.1^Δe29 mouse muscle; experiment: Peak contraction force of non-myotonic and myotonic ex vivo EDL, drug in bath; settings: 5 mM and 20 mM verapamil in bath, with or without 100 mM 9-AC; 20-wk mice
WT+9-AC EDL muscle = experiment: Transient weakness, ex vivo EDL made myotonic with 9-AC; settings: in bath, 20-wk mice
[9] = 5 mg/kg/day amlodipine vs untreated
[10] = 20-weeks of age, amlodipine treated vs WT

SMILES: CCOC(=O)C1=C(COCCN)NC(C)=C(C(=O)OC)C1c1ccccc1Cl (racemic) [amlodipine, (RS)-3-ethyl 5-methyl 2-[(2-aminoethoxy)methyl]-4-(2-chlorophenyl)-6-methyl-1,4-dihydropyridine-3,5-dicarboxylate]
- percent body weight change compared to WT ([1]; 5 mg/kg/day amlodipine vs WT): not significantly different
- percent body weight change from weaning at 10 weeks [1, 9]: significant improvement
- time of righting reflex, week-to-week, compared to ClC-1^−/− alone mice ([2]; 5 mg/kg/day amlodipine): no significant difference in righting
- average time of righting reflex compared to WT mice ([2]; 5 mg/kg/day amlodipine vs WT): not a significant difference in time of righting
- average time of righting reflex at 10- and 20-week of age [2, 9]: significantly improve time of righting
- time of righting reflex, weekly [2, 9]: significantly improves time of righting
- minute ventilation ([3]; 10-week, amlodipine treated vs untreated): not improved
- frequency of respiration ([3]; 10-weeks, 5 mg/kg/day amlodipine): reduction in the frequency
- frequency of respiration compared to WT [3, 10]: not significantly different
- minute ventilation compared to WT [3, 10]: significant reduction
- respiratory function overall ([3]; amlodipine treatment): moderately impacted
- muscle function and muscle force generation in EDL [4]: not a significant impact
- muscle function and muscle force generation in diaphragm ([5]; 20-weeks-of-age, amlodipine treatment): not a significant impact
- diaphragm force reduction at 150 Hz and in frequency dependence protocol, compared to ClC-1^−/− alone mice ([5]; 20-wk, amlodipine treated): comparable
- diaphragm strip force generation compared to WT diaphragm ([5]; 20-wk, amlodipine treated vs WT): force generation reduction
- myotonia (myotonic WT EDL; 10 mM amlodipine): reduced myotonia
- myotonia (myotonic Cav1.1^Δe29 EDL; 10 mM amlodipine): reduction in the myotonia
- myotonia, difference between WT and Cav1.1^Δe29, first tetanus (myotonic Cav1.1^Δe29 EDL; 10 mM amlodipine): significant difference
- myotonia, difference between WT and Cav1.1^Δe29, following tetani (myotonic Cav1.1^Δe29 EDL; 10 mM amlodipine, 100 mM 9-AC): no difference
- myotonia (integration normalized to specific force) without 9AC [6]: has no affect
- initial force generation drop ([7]; 10 mm amlodipine in the bath): improved
- transient weakness ([7]; 10 mm amlodipine in the bath): improvement to transient weakness

SMILES: COc1ccc(CCN(C)CCCC(C#N)(c2ccc(OC)c(OC)c2)C(C)C)cc1OC (racemic) [verapamil, (RS)-2-(3,4-Dimethoxyphenyl)-5-{[2-(3,4-dimethoxyphenyl)ethyl]-(methyl)amino}-2-prop-2-ylpentanenitrile]
- peak contraction force [8]: does not reduce peak contraction force
- transient weakness (WT+9-AC EDL muscle; 5 mM verapamil): improve transient weakness
- transient weakness (WT+9-AC EDL muscle; 20 mM verapamil): improve transient weakness
- transient weakness ([7]; 5 mM verapamil, in bath): improve transient weakness
- transient weakness ([7]; 20 um verapamil, in bath): significant and robust

SMILES: COC(=O)C1=C(C)NC(C)=C(C(=O)OC)C1c1ccccc1[N+](=O)[O-] [nifedipine, 3,5-dimethyl 2,6-dimethyl-4-(2-nitrophenyl)-1,4-dihydropyridine-3,5-dicarboxylate]
- myotonia (myotonic WT EDL; 75 nM nifedipine): reduced myotonia
- myotonia (myotonic Cav1.1^Δe29 EDL; 75 nM nifedipine): reduction in the myotonia
- initial drop in force generation between the first and second tetani ([7]; 10 mM nifedipine): improved
- transient weakness ([7]; 10 mM nifedipine in the bath): significant improvement in transient weakness
